Source: US8278469B2, “17-hydroxy-17-pentafluoroethyl-estra-4,9(10)-dien-11-aryl derivatives, method of production thereof and use thereof for the treatment of diseases” (Bayer Pharma Aktiengesellschaft, priority 2009, dated 2012)

Assays:
[1] = molecular target: T1, human progesterone receptor A (PR-A) (Homo sapiens, UniProt P06401); test: Progesterone receptor-antagonistic action in stable transfectants of SK-N-MC cells with human PR-A and MTV-LUC reporter; assay type: cell-based
T1 construct: expressed in transfected cells; host or cells: SK-N-MC human neuroblastoma cells, stably transfected with pRChPR-A-neo and pMMTV-LUC
T1 sequence (P06401 1-769 isoform P06401-2): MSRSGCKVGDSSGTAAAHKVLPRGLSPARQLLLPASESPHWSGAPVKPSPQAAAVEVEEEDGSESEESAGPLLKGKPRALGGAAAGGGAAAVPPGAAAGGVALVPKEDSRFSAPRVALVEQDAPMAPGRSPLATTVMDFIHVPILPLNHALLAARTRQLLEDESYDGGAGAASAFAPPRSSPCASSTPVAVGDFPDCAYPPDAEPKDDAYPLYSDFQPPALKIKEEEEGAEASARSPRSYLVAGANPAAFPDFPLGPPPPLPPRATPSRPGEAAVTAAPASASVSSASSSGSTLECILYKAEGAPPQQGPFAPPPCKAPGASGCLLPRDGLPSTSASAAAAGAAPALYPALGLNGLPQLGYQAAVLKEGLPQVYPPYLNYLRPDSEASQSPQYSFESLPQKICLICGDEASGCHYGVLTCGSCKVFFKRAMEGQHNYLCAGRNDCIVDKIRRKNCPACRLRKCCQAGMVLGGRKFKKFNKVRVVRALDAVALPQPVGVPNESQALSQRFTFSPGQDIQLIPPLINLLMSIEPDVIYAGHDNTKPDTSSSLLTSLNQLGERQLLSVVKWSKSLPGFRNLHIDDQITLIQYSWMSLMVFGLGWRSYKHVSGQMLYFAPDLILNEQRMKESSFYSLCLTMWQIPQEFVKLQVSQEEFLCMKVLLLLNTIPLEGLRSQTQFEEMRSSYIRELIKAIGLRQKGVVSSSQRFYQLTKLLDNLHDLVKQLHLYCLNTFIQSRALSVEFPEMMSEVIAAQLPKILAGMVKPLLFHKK
Protocol: (§1) Progesterone Receptor-Antagonistic Action in Stable Transfectants of Human Neuroblastoma Cells (SK-N-MC Cells) with the Human Progesterone A or Progesterone B Receptor and an MTV-LUC Reporter Construct
(§2) SK-N-MC cells (human neuroblastoma cells), which have been stably transfected with plasmids, which express the human progesterone receptor B (pRChPR-B-neo) or the human progesterone receptor A (pRChPR-A-neo) and a reporter construct (pMMTV-LUC), were incubated for 24 hours either in the absence (negative control) or in the presence of increasing amounts of the respective test compound (0.01 nmol/l, 0.1 nmol/l, 1 nmol/l, 10 nmol/l, 100 nmol/l and 1 μmol/l), in order to determine the agonistic efficacy. As positive control of reporter gene induction, the cells were treated with the synthetic gestagen promegestone (0.01 nmol/l, 0.1 nmol/l, 1 nmol/l, 10 nmol/l, 100 nmol/l and 1 μmol/l). For determination of the antagonistic activity, the cells were treated with 0.1 nmol/l promegestone and additionally with increasing amounts of the respective test compound (0.01 nmol/l, 0.1 nmol/l, 1 nmol/l, 10 nmol/l, 100 nmol/l and 1 μmol/l). The activity of the LUC reporter gene (LUC=luciferase) was determined in the cell lysates and was measured as RLU (relative light units). All measured values are given as percentage efficacy and as EC50 or IC50 concentrations.
(§3) 11β-(4-Acetylphenyl)-20,20,21,21,21-pentafluoro-17-hydroxy-19-nor-17α-pregna-4,9-dien-3-one and 20,20,21,21,21-pentafluoro-17-hydroxy-11β-[4-(hydroxyacetyl)phenyl]-19-nor-17α-pregna-4,9-dien-3-one, very potent and therefore preferred examples from WO98/34947 and WO2008/058767, were tested as comparative compounds along with the test compound.

[2] = molecular target: T2, human progesterone receptor B (PR-B) (Homo sapiens, UniProt P06401); test: Progesterone receptor-antagonistic action in stable transfectants of SK-N-MC cells with human PR-B and MTV-LUC reporter; assay type: cell-based; settings: SK-N-MC, 24 h, read-out: Progesterone receptor B (PR-B) Efficacy
T2 construct: expressed in transfected cells; host or cells: SK-N-MC human neuroblastoma cells, stably transfected with pRChPR-B-neo and pMMTV-LUC
T2 sequence (P06401 1-933): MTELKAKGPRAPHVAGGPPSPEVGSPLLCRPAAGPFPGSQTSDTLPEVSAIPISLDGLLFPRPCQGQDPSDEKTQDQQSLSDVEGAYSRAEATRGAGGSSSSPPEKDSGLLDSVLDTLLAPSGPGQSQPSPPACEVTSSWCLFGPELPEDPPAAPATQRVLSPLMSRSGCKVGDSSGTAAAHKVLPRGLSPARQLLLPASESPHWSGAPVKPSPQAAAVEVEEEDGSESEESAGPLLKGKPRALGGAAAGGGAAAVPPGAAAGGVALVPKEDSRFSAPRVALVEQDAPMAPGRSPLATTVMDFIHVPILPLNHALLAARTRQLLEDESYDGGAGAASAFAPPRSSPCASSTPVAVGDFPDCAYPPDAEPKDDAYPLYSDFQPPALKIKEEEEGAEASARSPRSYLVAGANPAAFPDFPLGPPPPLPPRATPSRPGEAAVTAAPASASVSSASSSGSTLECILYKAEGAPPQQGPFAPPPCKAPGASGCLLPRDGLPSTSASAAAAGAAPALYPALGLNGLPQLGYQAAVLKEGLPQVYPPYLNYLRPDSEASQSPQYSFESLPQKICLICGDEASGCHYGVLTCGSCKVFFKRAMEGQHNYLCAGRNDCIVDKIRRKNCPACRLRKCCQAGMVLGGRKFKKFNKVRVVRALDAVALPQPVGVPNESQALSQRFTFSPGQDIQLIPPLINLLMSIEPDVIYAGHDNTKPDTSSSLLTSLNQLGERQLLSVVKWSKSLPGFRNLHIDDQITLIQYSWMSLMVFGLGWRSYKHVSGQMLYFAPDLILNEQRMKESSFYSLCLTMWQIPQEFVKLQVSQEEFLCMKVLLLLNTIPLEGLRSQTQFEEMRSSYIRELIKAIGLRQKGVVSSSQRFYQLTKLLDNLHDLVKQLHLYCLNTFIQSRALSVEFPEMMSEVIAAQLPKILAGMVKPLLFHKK
Protocol: as §1, §2, §3

Structure (SMILES): C[C@]12C[C@H](c3ccc(S(C)(=O)=O)cc3)C3=C4CCC(=O)C=C4CC[C@H]3[C@@H]1CC[C@@]2(O)C(F)(F)C(F)(F)F [Example 4, (11β,17β)-17-Hydroxy-11-[4-(methylsulphonyl)phenyl]-17-(pentafluoroethyl)estra-4,9-dien-3-one]
- Emax ([1]; SK-N-MC, 24 h, read-out: Progesterone receptor A (PR-A) Efficacy): 100%
- IC50 ([1]; antagonistic activity against 0.1 nmol/l promegestone, SK-N-MC cells, 24 hours, LUC reporter, read-out: Progesterone receptor A (PR-A) Potency IC50): 96 pM
- Emax [2]: 100%
